Assay results reported in paper PMC10482267, “Safety, tolerability, pharmacokinetics, and pharmacodynamics of single and multiple doses of aficamten in healthy Chinese participants: a randomized, double-blind, placebo-controlled, phase 1 study” (Frontiers in Pharmacology, 2023).
Values joined by “and” are separate entries in the source; they are usually repeats but may differ in a detail not shown here. Equal entries are not always repeated. Where two headings read alike, the source gives them in different places.

Test: Plasma pharmacokinetics of aficamten and metabolites after single and multiple oral doses, phase 1 study
Format: in vivo, human
Settings: for AR_AUC (accumulation ratio based on AUC0-24) / AR_Cmax (accumulation ratio based on Cmax): day 14 vs day 1; for Tmax / AUC(0-inf) / AUC(0-t) / Cmax / half-life: human
Method: This was a double-blind, randomized, placebo-controlled, phase 1 study including SAD and MD dose cohorts (Figure 1). […] For the second single-dose cohort, 20 mg was chosen as the escalated dose according to the dosing plan scheduled in the phase 3 study (CY 6031: NCT05186818). Furthermore, a multiple oral dose of 5 mg once daily (QD) was selected to explore the steady-state PK exposure in Chinese participants and to compare the findings with the MAD 5 mg QD results in the study CY 6011.
A total of 28 participants were enrolled in the study, with eight participants per SAD cohort (10 mg and 20 mg) and 12 participants in the MD cohort (5 mg). The sample size chosen for this study was based on other precedent PK studies of similar nature and was not based on power calculations. In each SAD cohort, eight eligible participants were randomized in 3:1 ratio to receive a single oral dose of aficamten or the matching placebo after overnight fasting. The dose escalation criteria (see Supplementary File S1) had to be met to proceed from the SAD 10 mg cohort to the SAD 20 mg cohort. In addition, the SAD 20 mg cohort started at least 5 days after the last subject’s administration in the SAD 10 mg cohort. Upon the completion of the SAD 20 mg cohort, the study proceeded to the MD 5 mg cohort when the dose escalation criteria were met. The MD cohort started at least 5 days later after the last subject’s administration in the SAD 20 mg cohort. In the MD cohort, 12 eligible participants were enrolled and randomized in 3:1 ratio to receive multiple oral doses of 5 mg of aficamten or the matching placebo under fasting conditions for 14 days. The investigator would determine if stopping rules (see Supplementary File S2) were met in this cohort.
Blood samples (4 mL) for plasma PK analysis of aficamten and its metabolites (mono-hydroxylated derivative CK-3834282 and its diastereomer CK-3834283) were collected into K2EDTA tubes in the SAD cohorts at the following time points: at pre-dose and at 0.25, 0.5, 1, 1.5, 2, 2.5, 3, 4, 6, 8, 12, 16, 24, 36, 48, 72, 96, and 216 h post-dose. In the MD cohort, blood samples were collected at pre-dose and at 0.25, 0.5, 1, 1.5, 2, 2.5, 3, 4, 6, 8, 12, and 16 h post-dose on day 1; at pre-dose and at 1.5 h post-dose on day 2, days 4–6, and day 9; at pre-dose on day 3, days 7–8, and days 10–13; at pre-dose and at 0.25, 0.5, 1, 1.5, 2, 2.5, 3, 4, 6, 8, 12, 16, 24, 36, 48, 72, 168, and 216 h post-dose on day 14. After collection, blood samples were centrifuged at 1700 g for 10 min at 4°C ± 2°C; plasma was aliquoted and stored at −80°C ± 20°C until analyzed. Meanwhile, samples for urine PK analysis of aficamten were collected in the MD cohort as follows: pre-dose, 0–4 h, 4–8 h, 8–12 h, and 12–24 h on days 1 and 14, respectively.
The samples were determined using a validated ultra-performance liquid chromatography-tandem mass spectrometry (UPLC-MS/MS) method. The detection was performed on a tandem mass spectrometer in the electrospray ionization (ESI)-positive mode. The multiple reactions monitoring (MRM) mode was applied to monitor the following ion transitions: m/z 338.2→213.2 for aficamten and m/z 354.3→ 229.3 for metabolite CK-3834282 and its diastereomer CK-3834283. Note that the diastereomers were separated from chromatography during the analysis. The calibration curves of the plasma and urine samples were linear, ranging from 1 to 500 ng/mL, and the intra- and inter-run accuracies (RE%) and precisions (RSD%) were within ±15%. In addition, the selectivity, matrix effect, extraction recovery, carryover, and stability at different conditions were also fully evaluated.
The plasma PK parameters were evaluated using the plasma concentrations by the non-compartmental model approach using WinNonlin (version 8.3, Certara LP, Princeton, NJ, USA) and were summarized descriptively by the cohort and dose. […]

[1] = MD 5 mg once daily, mean ± SD, listed as Aficamten

CCc1nc(-c2ccc3c(c2)CC[C@H]3NC(=O)c2cnn(C)c2)no1 [aficamten]
AR_AUC (accumulation ratio based on AUC0-24) (MD 5 mg once daily, mean ± SD): 4.2 and 4.16 | AR_Cmax (accumulation ratio based on Cmax) (MD 5 mg once daily, mean ± SD): 1.8 | AR_AUC (accumulation ratio based on AUC0-24) [1]: 4.2 ± 0.4 | AR_Cmax (accumulation ratio based on Cmax) [1]: 1.8 ± 0.6 | t1/2 (MD 5 mg, day 14, plasma, mean ± SD): 76.8 ± 11.8 h | tmax (tmax,ss) (MD 5 mg, day 14, plasma, median (minimum, maximum)): 0.5 (0.25, 2.0) h | CL/F (MD 5 mg, day 14, mean ± SD): 3.8 ± 0.6 L/h | V/F (MD 5 mg, day 14, mean ± SD): 412.7 ± 66.1 L | CL/F (SAD 10 mg, mean ± SD): 3.0 ± 0.19 L/h | V/F (SAD 10 mg, mean ± SD): 320.3 ± 51.3 L | t1/2 (SAD 20 mg, plasma, mean ± SD): 77.3 ± 13.6 h | CL/F (SAD 20 mg, mean ± SD): 3.4 ± 0.2 L/h | V/F (SAD 20 mg, mean ± SD): 371.9 ± 55.4 L | dose proportionality of plasma exposure (AUC0-24 and Cmax), in words (dose range 5–20 mg): dose-proportional | Tmax (oral, MD 5 mg, day 1, plasma, median (minimum, maximum), read-out: tmax): 0.5 h | AUC(0-inf) (oral, SAD 10 mg, plasma, mean ± SD): 3.34 ± 0.223 µg·h/mL | Tmax (oral, SAD 10 mg, plasma, median (minimum, maximum), read-out: tmax): 0.75 h | AUC(0-inf) (oral, SAD 20 mg, plasma, mean ± SD): 5.99 ± 0.415 µg·h/mL | Tmax (oral, SAD 20 mg, plasma, median (minimum, maximum), read-out: tmax): 0.5 h | AUC(0-t) (plasma, oral, 5 mg, MD 5 mg once daily, day 1, plasma, mean ± SD, N = 9, read-out: AUC0-24): 0.325 ± 0.0326 µg·h/mL | AUC(0-t) (plasma, oral, 5 mg, MD 5 mg once daily, day 14, plasma, mean ± SD, N = 9, read-out: AUC0-24): 1.36 ± 0.215 µg·h/mL | AUC(0-t) (plasma, oral, 5 mg, MD 5 mg, day 1, plasma, mean ± SD, read-out: AUC0-t): 0.325 ± 0.0325 µg·h/mL | Cmax (plasma, oral, 5 mg, MD 5 mg, day 1, plasma, mean ± SD, read-out: Cmax): 0.0726 ± 0.0195 µg/mL | half-life (plasma, oral, 5 mg, MD 5 mg, day 1, plasma, mean ± SD, read-out: t1/2 (converted)): 38.6 ± 16.1 h | Cmax (plasma, oral, 5 mg, MD 5 mg, day 14, plasma, mean ± SD, read-out: Cmax (Cmax,ss)): 0.122 ± 0.0352 µg/mL | half-life (plasma, oral, 5 mg, MD 5 mg, day 14, plasma, mean ± SD, read-out: t1/2 (converted)): ~77 h | AUC(0-t) (plasma, oral, 10 mg, SAD 10 mg, plasma, mean ± SD, read-out: AUC0-t): 2.78 ± 0.249 µg·h/mL | Cmax (plasma, oral, 10 mg, SAD 10 mg, plasma, mean ± SD, read-out: Cmax): 0.115 ± 0.0299 µg/mL | half-life (plasma, oral, 10 mg, SAD 10 mg, plasma, mean ± SD, read-out: t1/2 (converted)): 73.8 ± 10.2 h | AUC(0-t) (plasma, oral, 20 mg, SAD 20 mg, plasma, mean ± SD, read-out: AUC0-t): 5.29 ± 0.372 µg·h/mL | Cmax (plasma, oral, 20 mg, SAD 20 mg, plasma, mean ± SD, read-out: Cmax): 0.227 ± 0.0718 µg/mL | Tmax (plasma, oral, all cohorts, read-out: time of peak concentration (tmax day 1, tmax,ss day 14)): 0.5 to 0.75 h | AUC(0-t) (plasma, po, 10 mg, SAD 10 mg single oral dose, fasted, plasma, mean ± SD, N = 6, read-out: AUC0-24): 0.67 ± 0.085 µg·h/mL | AUC(0-t) (plasma, po, 20 mg, SAD 20 mg single oral dose, fasted, plasma, mean ± SD, N = 6, read-out: AUC0-24): 1.3 ± 0.151 µg·h/mL | half-life (plasma, po, across single oral dose 10 mg and 20 mg and 14 days QD 5 mg, read-out: mean half-life): 74 to 77 h | half-life (plasma, po, single oral dose of 10 mg and 20 mg of aficamten, across both doses, read-out: t1/2 (arithmetic mean)): 74 to 77 h
